The source of these data is US9113629B2, “4-amino-6-(4-substituted-phenyl)-picolinates and 6-amino-2-(4-substituted-phenyl)-pyrimidine-4-carboxylates and their use as herbicides” (DOW AGROSCIENCES LLC, priority 2013, dated 2015).

Each structure is given as a SMILES string. Read-outs that look alike come from different tables or passages of the source. Where only a bound is given, the exact number is not on record here.

Assay [1] concerns VERPE: bird's-eye speedwell (veronica persica). Briefly: Post-emergent Test III, herbicidal activity in wheat and barley. Particulars: for pest or weed control at 35 g/ha: 35 g ai/ha; for pest or weed control at 70 g/ha: 70 g ai/ha; for GR50 VERPE / GR80 VERPE: probit analysis. It is filed as in vivo. Summed up:
(§1)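 Plants at the second to third true-leaf stage, grown in a greenhouse at about 18/17 °C with a 14 h photoperiod, were sprayed post-emergence at 187 L/ha with the high rate and ½× to 1/16× serial dilutions in an acetone/DMSO/crop-oil/surfactant carrier. Injury was rated visually at 21 d on a 0–100% scale, and GR20–GR90 were derived by probit analysis.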

The test system of the next assay is APESV. In words: Pre-emergent Test III, preemergent activity in wheat and barley. It is filed as in vivo, Apera spica-venti. How it is done:
(§2) Pre-emergent Test III. Seeds of test species were planted into square plastic pots (10 cm wide) containing sandy loam soil. After planting, all pots were sub-irrigated 16 h prior to compound application. A weighed amount, determined by the highest rate to be tested, of each test compound was placed in a 25 mL glass vial and was dissolved in 4 mL of a 97:3 v/v mixture of acetone and DMSO to obtain concentrated stock solutions. […] The concentrated stock solutions obtained were diluted with 20 mL of an aqueous mixture containing water and 0.02% w/v (weight/volume) of Triton X-155 to obtain spray solutions containing the highest application rates. Additional application rates were obtained by serial dilution of 12 mL of the high rate solution into a solution containing 2 mL of 97:3 v/v mixture of acetone and DMSO and 10 mL of an aqueous mixture containing water and 0.02% w/v (weight/volume) of Triton X-155 to obtain 1⁄2×, 1⁄4×, 1⁄8× and 1/16× rates of the high rate. Compound requirements are based upon a 12 mL application volume at a rate of 187 liters per hectare (L/ha). Formulated compounds were applied to the soil surface with an overhead Mandel track sprayer equipped with […] nozzles calibrated to deliver 187 L/ha over an application area of 0.503 square meters. Control pots were sprayed in the same manner with the solvent blank. The treated pots and control pots were placed in a greenhouse as described above and watered through surface irrigation. After 21 d, the condition of the test pots as compared with that of the untreated pots was determined visually and scored on a scale of 0 to 100 percent where 0 corresponds to no herbicidal effect and 100 corresponds to plant death or lack of emergence from the soil. By applying the well-accepted probit analysis as described by J. Berkson in Journal of the American Statistical Society, 48, 565 (1953) and by D. Finney in “Probit Analysis” Cambridge University Press (1952), the above data can be used to calculate GR20, GR50, GR80 and GR90 values, which are defined as growth reduction factors that correspond to the effective dose of herbicide required to kill or control 20 percent, 50 percent, 80 percent or 90 percent, respectively, of a target plant.

The subject of a further assay is HORSS. The description is as above. It is filed as in vivo, Hordeum vulgare. As for the experimental part: as §2
In a further assay the test system is TRZSS. The assay is described as above. It is filed as in vivo, Triticum aestivum. As for the experimental part: as §2
The subject of assay [2] is BROTE: downy brome (Bromus tectorum). Briefly: Post-emergent Test III, herbicidal activity in wheat and barley. The following applies: for pest or weed control at 35 g/ha: 35 g ai/ha; for pest or weed control at 70 g/ha: 70 g ai/ha; for GR50 BROTE / GR80 BROTE: probit analysis, 21 days after application; for GR50 BROTE: dose for growth reduction of 50 percent; for GR80 BROTE: dose for growth reduction of 80 percent. The assay is classed as in vivo. Summed up:
as §1

The mark [3] stands for this setting: Veronica persica, post-emergence, 504 h, 21 days after application, read-out: Visual Gorowth Reduction (%) 21 days After Application VERPE.
The mark [4] stands for this setting: 21 days after application, dose to kill or control 20%, probit analysis.
[5] abbreviates: Bromus tectorum, post-emergence, 504 h, read-out: Visual Growth Reduction (%) 21 Days After Application BROTE.
[6] abbreviates: Veronica persica, post-emergence, 504 h, read-out: Visual Growth Reduction (%) 21 Days After Application VERPE.

For `COC(=O)c1nc(-c2ccc(Br)c(F)c2)c(F)c(N)c1Cl` [Compound 49], the pest or weed control at 35 g/ha in assay [1] (setting [3]) fell in the range of 45 to 59%. For the same compound, the pest or weed control at 70 g/ha in assay [1] (setting [3]) fell in the range of 60 to 74%. The “GR50 VERPE” value in assay [1] (dose for 50 percent growth reduction, 21 days after application) was 37 g ai/ha. Moreover, the “GR80 VERPE” value in assay [1] (dose for 80 percent growth reduction, 21 days after application) is over 140 g ai/ha. In addition, the “Visual Growth Reduction (%) 21 Days After Application, APESV” value in the assay with APESV (35 g ai/ha) is given as “F (30-44)”; in the assay with APESV (70 g ai/ha), “E (45-59)”. The “GR50 APESV” value with APESV (21 days after application, dose to kill or control 50%, probit analysis) was over 70 g ai/ha. Further, the “GR80 APESV” value with APESV (21 days after application, dose to kill or control 80%, probit analysis) is listed as over 70 g ai/ha. In addition, the “Visual Growth Reduction (%) 21 Days After Application, HORSS” value in the assay on HORSS (35 g ai/ha) and in the assay with HORSS (70 g ai/ha) was “G (0-29)” throughout. In the assay on HORSS (setting [4]), the “GR20 HORSS” value was over 70 g ai/ha. Moreover, the “Visual Growth Reduction (%) 21 Days After Application, TRZSS” value with TRZSS (35 g ai/ha) and in the assay on TRZSS (70 g ai/ha) was “G (0-29)” each time. For the same compound, the “GR20 TRZSS” value with TRZSS (setting [4]) is over 70 g ai/ha.
As for `Nc1c(F)c(-c2ccc(C(F)(F)F)c(F)c2F)nc(C(=O)O)c1Cl` [Compound 167], in assay [2] (setting [5]), the pest or weed control at 35 g/ha fell in the range of 30 to 44% and the pest or weed control at 70 g/ha lay in the range of 75 to 84%. In assay [2], the “GR50 BROTE” value was 43 g ai/ha and the “GR80 BROTE” value is 81 g ai/ha.
In the case of `COC(=O)c1nc(-c2ccc(Cl)c(F)c2)c(F)c(N)c1Cl` [Compound 216], in assay [2] (setting [5]), the pest or weed control at 35 g/ha lay in the range of 30 to 44% and the pest or weed control at 70 g/ha lay within 45 to 59%. For the same compound, in assay [2] (Bromus tectorum, post-emergence, 504 h, 140 g ai/ha, read-out: Visual Growth Reduction (%) 21 Days After Application BROTE), the pest or weed control at 140 g/ha is 45 to 59%. Moreover, in assay [2], the “GR50 BROTE” value was determined as 136 g ai/ha and the “GR80 BROTE” value is given as over 140 g ai/ha. Also, in assay [1] (setting [6]), the pest or weed control at 35 g/ha was in the range of 45 to 59% and the pest or weed control at 70 g/ha lay within 60 to 74%. In addition, the pest or weed control at 140 g/ha in assay [1] (Veronica persica, post-emergence, 504 h, 140 g ai/ha, read-out: Visual Growth Reduction (%) 21 Days After Application VERPE) lay within 75 to 84%. In addition, the “GR50 VERPE” value in assay [1] (dose for growth reduction of 50 percent, 21 days after application) is 32 g ai/ha. In addition, the “GR80 VERPE” value in assay [1] (dose for growth reduction of 80 percent, 21 days after application) is over 140 g ai/ha.
